Tests used:
Format in all cases: cell-based, human
[1] = system: autologous CD4 or CD8 T cells; assay: Autologous stimulation of T lymphocytes by DCs exposed to targeted pp65 peptides, [3H] thymidine incorporation; details: semi mDCs loaded at 4° C., HLA-A2+/CMV positive donors, 5 days
Procedure: (§1) Peptides at a concentration of 5 μg/ml were incubated with semi mDCs from HLA-A2/CMV-positive donors for 60 min at 4° C. Subsequently, they were washed to remove unbound peptides. Autologous stimulation was done in 96-well tissue culture plates in X-vivo 15 medium. Briefly, DCs were mixed with 10^5 autologous CD4 or CD8 T cells at a DC/lymphocytes ratios of 1/5 and 1/10 in a final volume of 250 μl. Cells were incubated for 5 days and then they were pulsed with [^3H] thymidine and harvested 16 h later. [^3H] thymidine incorporation was measured in a β-scintillation counter. In some experiments, the cells were cultured for 8 days and then stained with dextramers specific for pp65 NLVPMVATV (SEQ ID NO:19) epitope.
The capacity of the NW-pp65 fusion peptide (60-mer) to activate T cells from HLA-A2+/CMV positive donors was evaluated. It should be noted that the 48-mer pp65 peptide contains both MHC class I (e.g. NLVPMVATV) (SEQ ID NO:19) and class II (e.g. AGILARNLVPMVATV (SEQ ID NO:23), FFWDANDIYRI (SEQ ID NO:24)) epitopes, allowing the detection of CD4 and CD8 T-cell responses (24-26). […] All cultures were incubated at 37° C. for 5 days and T-cell activation was determined by measuring their proliferation potential (FIG. 6A). […]

[2] = system: CD8 T cells specific for the NLVPMVATV epitope; assay: Dextramer staining of CD8 T cells after stimulation with peptide-exposed DCs; details: DC-stimulated CD8 T cells, CMV positive donors, equal molar concentrations, n=3
Procedure: as §1
Dextramers with CMV (NLVPMVATV) (SEQ ID NO:19) and HIV (ILKEPVHGV) (SEQ ID NO:22) HLA-A2 specific antigens were obtained from Immudex (Copenhagen, Denmark). Antibodies against human CD8, CD19 and CD56 were obtained from eBioscience (San Diego, Calif., USA). […] Cells were washed and resuspended in SB containing 1% paraformaldehyd and analyzed on a BD SLR II flow cytometer. The data were analyzed using FCS Express (De Novo Software, Los Angeles, Calif., USA).

[3] = system: CD8 T cells against NLVPMVATV epitope; assay: Dextramer staining of CD8 T cells after PBMC stimulation with pp65 peptides
Procedure: (§2) PBMC from HLA-A2/CMV+ donors were thawed, washed and then incubated with the peptides (5 μg/ml) for 60 min at 4° C. Subsequently, the cells were washed twice and then plated at 2×10^5 cells per well in 96-well tissue culture plate. Cells were cultured for 5 days and subsequently they were pulsed with [^3H] thymidine and harvested 16 h later. In some experiments, the cells were cultured for 12 days and then stained with dextramers specific for pp65 NLVPMVATV (SEQ ID NO:19) epitope. Monocyte-depleted PBMCs were also used. To analyze primary immune responses against pp65 protein, PBMCs from HLA-A2+/CMV-negative donors were used. Autologous DCs were incubated with either NW-pp65 or GA-pp65 peptide (5 μg/ml) at 4° C. for 1 h, followed by three washes to remove unbound peptides. Subsequently, the cells were incubated with CD45RO-depleted PBMC (responder cells) and co-cultured for 10 days at ratio 1/10 (DC to responder cells) in X-vivo 15 medium supplemented with 10 ng/ml human IL-7 for 10 days. After 2 rounds of stimulation (8 days each) with autologous DC loaded with peptides, the cells were stained with dextramers specific for pp65 NLVPMVATV (SEQ ID NO:19) epitope. To test spontaneous uptake of peptides by DCs, PBMCs from HLA-A2+/CMV positive donors were incubated at 37° C. with various concentrations of untargeted or targeted pp65 peptide for 90 min. Subsequently, the cells were washed to remove unbound peptides and cultured at 37° C. for 12 days and then stained with dextramers specific for pp65 NLVPMVATV (SEQ ID NO:19) epitope.
Dextramers with CMV (NLVPMVATV) (SEQ ID NO:19) and HIV (ILKEPVHGV) (SEQ ID NO:22) HLA-A2 specific antigens were obtained from Immudex (Copenhagen, Denmark). Antibodies against human CD8, CD19 and CD56 were obtained from eBioscience (San Diego, Calif., USA). Briefly, around 10^6 cells were washed and resuspended in 50 μl staining buffer SB (PBS with 0.1% human serum albumin and 0.1% NaN3) containing 1 mg/ml aggregated α-globulin and then stained with dextramer for 10 min in the dark at room temperature. Subsequently, antibodies against CD8, CD19 and CD56 were added and incubation continued for additional 20 min. Cells were washed and resuspended in SB containing 1% paraformaldehyd and analyzed on a BD SLR II flow cytometer. The data were analyzed using FCS Express (De Novo Software, Los Angeles, Calif., USA).
Monocytes have the capacity to differentiate into macrophages or inflammatory DCs in-vitro and in-vivo (Auffray et al., (2009) Annu Rev. Immunol. 27, 669-92). Given that the NW peptide bound to blood monocytes, it was investigated whether this binding affects T-cell activation. Therefore, proliferation assays were performed with whole PBMCs. […]

[4] = system: PBMC cultures from CMV-positive donors; assay: IFN-γ production in PBMC cultures
Procedure: (A) PBMCs from HLA-A2+/CMV-positive donors were incubated with the indicated fusion peptides for 60 min at 4° C., washed and then incubated at 37° C. for […]. T-cell proliferation was monitored by thymidine incorporation. (B) Dextramer staining of CD8 T cells against NLVPMVATV (SEQ ID NO:19) epitope. (C) As in A and B, but monocyte-depleted PBMCs were used. (D) INF-γ and IL-10 levels in PBMC culture supernatants determined by ELISA.
Next, the immunostimulatory potential of the NW-pp65 fusion peptide was evaluated by assessing its ability to stimulate the overall IFN-γ and IL-10 production in PBMC cultures from CMV-positive donors (FIG. 8D).

PBMCs = assay: Targeted vs spontaneous uptake of pp65 peptides at 37° C., dextramer staining; details: PBMCs incubated at 37° C., 12 days, relative to untargeted peptide, particularly at lower peptide concentrations
Procedure: as §2, with “Subsequently, the cells were washed to remove unbound peptides and cultured at 37° C. for 12 days and then stained with dextramers specific for pp65 NLVPMVATV (SEQ ID NO:19) epitope.” left out

NWYLPWLGTNDWGCFTWPPWQAGILARNLVPMVATVQGQNLKYQEFFWDANDIYRIFAEL [NW-60-mer, 48-mer CMV pp65 peptide fused to NW peptide]
T-cell activation (proliferation, [3H]-thymidine) [1]: activated both CD8 and CD4 T cells
dextramer-positive CD8 T cells specific for NLVPMVATV [2]: 10.50%
CTL response (dextramer staining) ([3]; monocyte-depleted PBMCs): 5.60%
CTL response (dextramer staining) ([3]; whole PBMCs, n=3): 8.85%
total amounts of secreted IFN-γ ([4]; ELISA of PBMC culture supernatants, relative to untargeted peptide, n=4): significant increase
proportion of CD8 and CD4 T cells that produced IFN-γ ([4]; PBMCs from HLA-A2+/CMV positive): significant increase
expansion of CD8 T cells after uptake at 37° C. (PBMCs): significant expansion of CD8 T cells

From patent US20160083424A1, “COMPOSITIONS AND METHODS FOR TARGETING ANTIGEN-PRESENTING CELLS” (OSLO UNIVERSITETSSYKEHUS HF, priority 2013, published 2016)
